Experimental data as given in patent publication US20110256559A1, “Method for Detecting Soluble Amyloid Precursor Protein (APP) Alpha and/or Soluble APP Beta” (INSERM (Institut National de la Sante et de la Recherche …, priority 2008, published 2011).
Entries after “also recorded” stand apart in the source; their conditions may differ.

Assays:
[1] = tested on: sAPPα; test: sAPPα HTRF assay in primary cortical neurons conditioned medium; assay type: cell-based, mouse; conditions: primary neurons from transgenic mice expressing wild type human APP (FIG. 8)
Description: (§1) Four types of biological samples were investigated using the following procedure: human CSF, human blood serum, culture medium of neuroblastoma SH-SY5Y cell line treated with different drugs (for instance the PKC activator PdBu which stimulate the ADAM 17 alpha secretase activity), or conditioned culture medium from primary mouse cortical neurons.
(§2) All samples and calibrator were treated with 10 mM DTT on ice, during 30 min. In a 384-well low volume (20 μl) white plate, reagents were distributed in the following order: • 5 μl 150 mM phosphate buffer pH 7.0, 0.2% BSA. • 5 μl sample or calibrator, treated with DTT and diluted. • 5 μl MAB348 antibody, cryptate conjugate, diluted 1/250 with 50 mM phosphate buffer pH 7.0, 0.4M KF. • 5 μl 2B3 antibody, D2 conjugate, diluted 1/250 with 50 mM phosphate buffer pH 7.0, 0.4M KF.
Validation of the sAPPα HTRF Assay in Primary Cortical Neurons Conditioned Medium. (FIG. 8)

[2] = tested on: sAPPα; test: sAPPα HTRF assay in SH-SY5Y neuroblastoma cells conditioned medium; assay type: cell-based, human; conditions: for effect on PdBu-induced increase of sAPPα secretion: PKC activated by PdBu (FIG. 7)
Description: as §1, §2
The plate covered with a plate sealer was centrifuged (1000 g 1 min) and incubated overnight, at room temperature.
The plate sealer was removed, and the plate read on a compatible HTRF reader (Envision, Perkin Elmer), at […].
Results are calculated from 665 nm/620 nm ratio and expressed in delta F: […]
Delta F is proportional to the sAPPα concentration; Delta F obtained for samples can be reported on the calibration curve to deduce respective sAPPα concentration.
Different samples were submitted to the sAPPα HTRF assay with or without DTT treatment.
Numerous studies have shown that the sAPPα secretion is regulated by some intracellular signalisation pathway involving PKC and that the α-secretase responsible for this secretion is a disintegrin-metalloproteinase (ADAM 17).

O=C(O[C@@H]1Cc2c(O)cc(O)cc2O[C@@H]1c1cc(O)c(O)c(O)c1)c1cc(O)c(O)c(O)c1 [EGCG]
effect on sAPP alpha in the medium [1]: increase of sAPP alpha

CN(C)CCCn1cc(C2=C(c3c[nH]c4ccccc34)C(=O)NC2=O)c2ccccc21 [GF 109203]
effect on PdBu-induced increase of sAPPα secretion ([2]; SH-SY5Y conditioned medium): abolished

CCCC(=O)O[C@@H]1[C@@H](C)[C@@]2(O)[C@@H](C=C(CO)C[C@]3(O)C(=O)C(C)=C[C@@H]23)[C@@H]2C(C)(C)[C@]12OC(=O)CCC [PdBu]
effect on amount of sAPPα / sAPPα secretion ([2]; SH-SY5Y conditioned medium, samples pre-treated with DTT (FIG. 7)): activates the production of sAPPα; also recorded: increased | sAPP alpha, Without DTT ([2]; conditioned medium of SH-SY5Y neuroblastoma cell line, no DTT pre-treatment, n=8): 3.4 ± 0.4 ng/mL | sAPP alpha, With DTT ([2]; conditioned medium of SH-SY5Y neuroblastoma cell line, sample pre-treated with 10 mM DTT, n=8): 59.1 ± 2.8 ng/mL | sAPPα Mean, inter assay reproducibility ([2]; conditioned medium, inter assay, 16 samples): 61.4 ng/mL | sAPPα Mean, intra assay reproducibility ([2]; conditioned medium, intra assay, 8 samples): 59.1 ng/mL

CC(C)C[C@H](CC(=O)NO)C(=O)N[C@@H](Cc1ccc2ccccc2c1)C(=O)N[C@@H](C)C(N)=O [TAPI 0]
effect on PdBu-induced increase of sAPPα secretion ([2]; SH-SY5Y conditioned medium): abolished

PACAP 1-27
effect on sAPP alpha in the medium [1]: increase of sAPP alpha
